Paper PMC5365645, “Preclinical Pharmacokinetics and Pharmacodynamic Target of SCY-078, a First-in-Class Orally Active Antifungal Glucan Synthesis Inhibitor, in Murine Models of Disseminated Candidiasis” (Antimicrobial Agents and Chemotherapy, 2017)
Values after ≈ are worked out from the molar mass of the structure shown. Like-named read-outs stand apart in the source and are kept apart here.

Experiments:
[1] = in vivo; set-up: species or system female CD-1 mice; conditions: female, CD-1, mouse
Procedure: (§1) The pharmacokinetics and bioavailability of SCY-078 were evaluated in uninfected mouse, rat, and dog after p.o. and i.v. administration. The in vivo phases of the PK studies were performed at either […] (Waltham, MA) or MPI Research (Mattawan, MI) after an Institutional Animal Care and Use Committee (IACUC) review. […] and MPI Research are Association for Assessment and Accreditation of Laboratory Animal Care International (AAALAC)-approved facilities. […] The peak concentration (Cmax), the time to maximum concentration (Tmax), the half-life, and the AUC were determined from composite mean plasma concentration-time data for rodents and individual plasma concentration-time data for dogs. All doses and plasma concentrations of SCY-078 are presented as free base.

[2] = tested on: C. albicans MY1055; experiment: Single delayed-dose treatment model of disseminated candidiasis; conditions: single dose 16 h after infection, tissue burden 96 h after treatment, regression analysis
Procedure: Next, a single-dose treatment with SCY-078 was administered. The target endpoint for efficacy in this model was defined as a static effect on the tissue burden measured 96 h after treatment.
For the single delayed-dose treatment model, a single dose of SCY-078 was administered 16 h after infection. The target endpoint for efficacy in this model was a static effect on the tissue burden measured at 96 h posttreatment.

[3] = Volume of distribution after i.v. administration; conditions: in vivo, iv, Rhesus monkey, no source reference printed, read-out: Vd ss
Description: TABLE 7 Volume of distribution for SCY-078 and echinocandins after i.v. administration | column: Vd ss (liters/kg)^a / SCY-078

[4] = tested on: C. glabrata isolate CG 5592; set-up: method as in PMID 25512406; conditions: stasis ref 6; cited from earlier work
[5] = tested on: C. parapsilosis isolate CP 20519.069; set-up: method as in PMID 25512406; conditions: cited from earlier work
[6] = pKa values; type: physicochemical
[7] = logD; type: physicochemical
[8] = In vitro metabolic stability in hepatic microsomes; type: in vitro ADME, dog; conditions: for remaining at 0.5 h, 1 µM: read-out: % remaining after 30 min
Procedure: The metabolic stability of SCY-078 was assessed after incubation with mouse, rat, dog, and human liver microsomes (Table 2) ([10]). […] The half-lives in rodent, dog, and human liver microsomes were ≥125, ≥29, and ≥42 min, respectively.
The metabolic stability of SCY-078 was evaluated with male and female mouse, male rat, male and female dog, and mixed-gender human liver microsomes (XenoTech, Lenexa, KS). SCY-078 (1 μM) was incubated with pooled liver microsomes (0.5 mg protein/ml) for 0, 5, 10, 20, and 30 min at 37°C in the presence of NADPH. Aliquots were taken at each sampling time point and extracted with 5 volumes of ice-cold acetonitrile containing the internal standard (d9-SCY-078, 125 ng/ml). Supernatants from the incubation mixtures were analyzed for the parent compound by LC-MS/MS according to the conditions described below. The metabolic competency of microsomal preparations was established using the control compounds 7-ethoxycoumarin, propranolol, and verapamil. The in vitro intrinsic clearance (CLint), the CLint scaled to the in vivo intrinsic clearance (CL′int), and the half-life were determined for SCY-078 incubated with microsomes from each species.

[9] = in vivo; set-up: species or system beagle dogs; conditions: beagle, dog; for half-life: t1/2
Procedure: as §1, with “base. Treatment naive male and female beagle dogs (n = 3/sex/group/time point) weighing 8 to 12 kg (males) or 6 to 10 kg (females) were given a single 5-mg/kg dose of SCY-078 as an i.v. injection over 5 min or an oral dose of 20 mg/kg as described above. Blood specimens were collected from the jugular vein at various time intervals to 72 h postdosing and processed as described above.” for “base.”

[10] = both sexes, pooled liver microsomes, dog liver microsomes, summary of male and female
[11] = pooled liver microsomes, female dog liver microsomes
[12] = pooled liver microsomes, male dog liver microsomes

CC(C)[C@@H](C)[C@@]1(C)CC[C@]2(C)[C@H]3CC[C@@H]4[C@@]5(COC[C@@]4(C)[C@@H](OC[C@](C)(N)C(C)(C)C)[C@H](n4ncnc4-c4ccncc4)C5)C3=CC[C@@]2(C)[C@@H]1C(=O)O [SCY-078, (1S,4aR,6aS,7R,8R,10aR,10bR,12aR,14R,15R)-15-[[(2R)-2-amino-2,3,3-trimethylbutyl]oxy]-8-[(1R)-1,2-dimethylpropyl]-14-[5-(4-pyridinyl)-1H-1,2,4-triazol-1-yl]-1,6,6a,7,8,9,10,10a,10b,11,12,12a-dodecahydro-1,6a,8,10a-tetramethyl-4H-1,4a-propano-2H-phenanthro[1,2-c]pyran-7-carboxylic acid]
bioavailability ([1]; 6.25 mg/kg): > 41%
bioavailability ([1]; 12 mg/kg): > 51%
Dose normalized AUC0–∞ to a 1-mg/kg dose ([1]; iv): 1.4 µg·h/mL
AUC(0-inf) ([1]; iv, 1 mg/kg): 1460 ng·h/mL
Vd ss ([1]; iv, 1 mg/kg): 5.3 L/kg
clearance ([1]; iv, 1 mg/kg): 11.3 mL/min/kg
AUC(0-t) ([1]; iv, 1 mg/kg, AUC0–24): 1390 ng·h/mL
Vd ([1]; iv, 1 mg/kg, Vd ss): 5.26 L/kg
half-life ([1]; iv, 1 mg/kg, t1/2): ~5.5 h
concentration at 4 h ([1]; po): 1490 ± 690 ng/mL
AUC(0-inf) ([1]; po, 6.25 mg/kg): 9560 ng·h/mL
Cmax ([1]; po, 6.25 mg/kg): 640 ng/mL
Tmax ([1]; po, 6.25 mg/kg): 4 h
concentration at 12 h ([1]; po, 6.25 mg/kg): 370 ± 60 ng/mL
AUC(0-t) ([1]; po, 6.25 mg/kg, AUC0–12): 3110 ng·h/mL
AUC(0-t) ([1]; po, 6.25 mg/kg, AUC0–24): 8360 ng·h/mL
Cmax ([1]; po, 6.25 mg/kg, Cmax): 390 ng/mL
half-life ([1]; po, 6.25 mg/kg, t1/2): 7.8 h
AUC0–12 ([1]; po, 12 mg/kg): 15100 ng·h/mL
AUC0–24 ([1]; po, 12 mg/kg): 22520 ng·h/mL
AUC(0-inf) ([1]; po, 12 mg/kg): 28300 ng·h/mL
Cmax ([1]; po, 12 mg/kg): 1610 ng/mL
Tmax ([1]; po, 12 mg/kg): 6 h
concentration at 12 h ([1]; po, 12 mg/kg): 850 ± 220 ng/mL
AUC(0-t) ([1]; po, 12 mg/kg, AUC0–12): 7580 ng·h/mL
AUC(0-t) ([1]; po, 12 mg/kg, AUC0–24): 22500 ng·h/mL
Cmax ([1]; po, 12 mg/kg, Cmax): 900 ng/mL
half-life ([1]; po, 12 mg/kg, Half-life in plasma): ~8.3 h
half-life ([1]; po, 12 mg/kg, t1/2): 8.8 h
Accumulation factor for AUC ([1]; po, 7 days): ~2 fold
Accumulation factor for Cmax ([1]; po, 7 days): ~2 fold
Dose achieving stasis endpoint [2]: 10.28 mg/kg
Vd [3]: 4.4 L/kg
Total drug AUC0–24 target [4]: ~18.8 µM·h
MIC [5]: 0.25 µg/mL (≈ 0.342 µM)
pKa ([6]; carboxylic acid): 5.5
pKa ([6]; primary amine): 9
pKa ([6]; pyridine): 2.4
logD ([7]; at PI): 4.9
logD ([7]; pH 7.3): ~6.4
half-life at 1 μM [8, 10]: ≥ 0.483 h
microsomal CLint at 1 μM [8, 10]: ≤ 48 µL/min/mg
CLint scaled at 1 μM ([8]; both sexes, pooled liver microsomes, dog liver microsomes, summary of male and female, read-out: CL′int (CLint scaled to in vivo intrinsic clearance)): ≤ 0.069 mL/min/kg
remaining at 0.5 h, 1 µM ([8]; female dog liver microsomes): 84%
remaining at 0.5 h, 1 µM ([8]; male dog liver microsomes): 49%
half-life at 1 μM [8, 11]: 1.53 h
microsomal CLint at 1 μM [8, 11]: 15 µL/min/mg
half-life at 1 μM [8, 12]: 0.483 h
microsomal CLint at 1 μM [8, 12]: 48 µL/min/mg
AUC(0-inf) ([9]; both sexes, iv, 5 mg/kg): 11900 ± 2200 ng·h/mL
AUC(0-t) ([9]; both sexes, iv, 5 mg/kg): 10400 ± 1900 ng·h/mL
Vd ([9]; both sexes, iv, 5 mg/kg): 5.1 L/kg
clearance ([9]; both sexes, iv, 5 mg/kg): 7.5 mL/min/kg
half-life ([9]; both sexes, iv, 5 mg/kg): ~9.3 h
AUC(0-inf) ([9]; both sexes, po, 20 mg/kg): 16000 ng·h/mL
AUC(0-t) ([9]; both sexes, po, 20 mg/kg): 11500 ng·h/mL
Cmax ([9]; both sexes, po, 20 mg/kg): 810 ± 420 ng/mL
Tmax ([9]; both sexes, po, 20 mg/kg): 4 ± 2 h
bioavailability ([9]; both sexes, po, 20 mg/kg, Bioavailability): ~35%
half-life ([9]; both sexes, po, 20 mg/kg): ~15.2 h
Dose normalized AUC0–∞ to a 1-mg/kg dose ([9]; both, iv): ~2.4 µg·h/mL
t1/2 ([9]; both, iv, 5 mg/kg): 9.3 h
